{"source": "patent US20240122923A1", "about": "“METHODS OF TREATING HIDRADENITIS SUPPURATIVA” (AbbVie Inc., priority 2022, published 2024)", "origin": "cited, not measured here", "tested_on": "HS", "settings": "24-week treatment period; cited from earlier work"}
{"substance": "etanercept", "values": [{"measurement": "improvement of HS", "result": "failed to show improvement of HS"}]}
